From US11571454B2, “Anticancer peptides that synergistically enhance chemotherapeutic potency” (The Penn State Research Foundation, priority 2017, dated 2023) come the findings set out here.

For the series, the system named is NCI/ADR-RES (drug-resistant ovarian carcinoma) cells. The experiment in a line: MTT cytotoxicity assay, NCI/ADR-RES. Format: cell-based, human. The protocol:
All cells were cultured using standard culture conditions at 37° C., 5% CO2, and 95% humidity. A549 (CCL-185), OVCAR-3 (HTB-161), T24 (HTB-4), and NCI/ADR-RES were cultured in RPMI-1640 supplemented with 10% v/v fetal bovine serum (FBS), 2 mM L-glutamine (L-Gln), 10,000 units penicillin/mL, 10 mg/mL streptomycin, and 25 μg/mL amphotericin B. HUVEC (PCS-100-010) cells were cultured in Vascular Cell Basal Media (PCS-100-030) supplemented with an Endothelial Cell Growth Kit-VEGF (PCS-100-041) and 10 μg/mL gentamycin in culture flasks coated with 0.1% gelatin by incubating at 37° C. for 15 min. NL20 (CRL-2503) cells were cultured in Ham's F12 supplemented with 1.5 g/L sodium bicarbonate, 2.7 g/L glucose, 2.0 mM L-glutamine, 0.1 mM nonessential amino acids, 0.005 mg/ml insulin, 10 ng/ml epidermal growth factor, 0.001 mg/ml transferrin, 500 ng/ml hydrocortisone and 4% fetal bovine serum, as advised by American Type Culture Collection (ATCC).
Viability was calculated by comparing to an untreated control.
All experiments were performed with n>6.
Cell viability experiments were completed n>6 in two independent experiments and analyzed using GraphPad Prism 8 to fit curves and calculate IC50 values using inhibitor vs. normalized response non-linear regression model. IC50 values are reported as mean values±standard deviation. […] Pore size frequency distribution was completed by ImageJ FIJI on 4 independent cells and n=30 pores from SEM images. UV-Vis OD600 and CD spectra are means of 5 and 3 replicates, respectively and reported as mean±standard deviation. Individual UV-Vis and CD spectra, as well as fluorescent confocal and TEM micrographs, shown are representative plots from three individual experiments. CD data is with a variance in ellipticity of 0.2 millidegrees at each wavelength. Relative fluorescence data calculated from fluorescent confocal images represents the average of 10 independent measurements±standard deviation. For spheroid volume analysis, a Kruskal-Wallis test and Dunn's multiple comparisons test was performed using GraphPad Prism 8.

Consider H-KRWHWWRRHWVVW-NH2 [MAD1], for which, where the note is “48 hours treatment, MTT, read-out: Cancerous (IC50, μM) NCl/ADR-RES”, the IC50 turned out to be 85.6 µM. For the same substance, the “Therapeutic Index NCl/ADR-RES” value (IC50-HUVEC/IC50-NCI/ADR-RES) came out at 1.2. In addition, the “cytotoxic activity against NCI/ADR-RES” value (result in words) is “moderate activity”.
